Data: US12139492B2 (Endotarget Inc., priority 2021, dated 2024)

Experiments:
Mino cells = experiment: Antiproliferative effect, MTS cell viability assay, Mino cells; format: cell-based; conditions: Homo sapiens, MINO, Mino mantle cell lymphoma cells; read-out: IC50 (anti-proliferation) Mino cells
Outline: (§1)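 Steps: seed B-cell lymphoma line; add compound at 0, 0.001, 0.01, 0.1, 1 or 10 μM; incubate 72 h; add MTS and read reduced tetrazolium (formazan) absorbance at 490 nm.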

JeKo-1 cells = experiment: Antiproliferative effect, MTS cell viability assay, JeKo-1 cells; format: cell-based; conditions: Homo sapiens; JeKo-1 mantle cell lymphoma cells; read-out: IC50 (anti-proliferation) JeKO-1 cells
Outline: as §1

BTK = BTK (Homo sapiens, UniProt Q06187); experiment: Degradation of BTK protein in Namalwa cells (Western blot; DC50, Dmax); conditions: for DC50: BTK degradation, cell line not given
Sequence of BTK (Q06187 whole entry): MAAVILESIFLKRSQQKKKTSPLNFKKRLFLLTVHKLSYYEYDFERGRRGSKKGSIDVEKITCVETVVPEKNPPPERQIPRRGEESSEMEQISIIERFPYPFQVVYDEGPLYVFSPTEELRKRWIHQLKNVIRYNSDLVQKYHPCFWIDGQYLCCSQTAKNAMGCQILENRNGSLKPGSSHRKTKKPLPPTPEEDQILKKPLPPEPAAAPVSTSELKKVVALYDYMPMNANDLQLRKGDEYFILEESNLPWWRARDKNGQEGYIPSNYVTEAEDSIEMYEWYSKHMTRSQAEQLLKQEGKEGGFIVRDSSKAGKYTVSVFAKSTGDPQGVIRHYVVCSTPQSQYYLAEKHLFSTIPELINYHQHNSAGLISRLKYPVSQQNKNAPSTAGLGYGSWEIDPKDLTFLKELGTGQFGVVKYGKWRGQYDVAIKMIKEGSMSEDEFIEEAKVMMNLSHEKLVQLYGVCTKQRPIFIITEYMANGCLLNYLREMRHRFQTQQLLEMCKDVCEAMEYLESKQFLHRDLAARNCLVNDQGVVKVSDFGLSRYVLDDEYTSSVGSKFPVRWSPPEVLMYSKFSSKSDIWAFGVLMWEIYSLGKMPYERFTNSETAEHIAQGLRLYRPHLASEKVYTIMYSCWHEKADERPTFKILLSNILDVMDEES

Row | Compound | IC50 (Mino cells) [nM] | IC50 (JeKo-1 cells) [nM] | Dmax (BTK) [%] | DC50 (BTK) [nM]
1 | NC(=O)c1c(-c2ccc(Oc3ccccc3)cc2)nn2c1NCC[C@H]2C1CCN(C(=O)N2CCC(CN3CCC(c4ccc5c(c4)C(=O)N(C4CCC(=O)NC4=O)C5=O)CC3)CC2)CC1 (stereo partly drawn) [Compound 295, (7S)-7-(1-(4-((4-(2-(2,6-dioxopiperidin-3-yl)-1,3-dioxoisoindolin-5-yl)piperidin-1-yl)methyl)piperidine-1-carbonyl)piperidin-4-yl)-2-(4-phenoxyphenyl)-4,5,6,7-tetrahydropyrazolo[1,5-a]pyrimidine-3-carboxamide] | < 1000 | 1000 to 10000 | > 90 | 10 to 50
2 | NC(=O)c1c(-c2ccc(Oc3ccccc3)cc2)nn2c1NCC[C@H]2C1CCN(C(=O)N2CCC(CN3CCC(c4ccc5c(c4)CN(C4CCC(=O)NC4=O)C5=O)CC3)CC2)CC1 (stereo partly drawn) [Compound 296, (7S)-7-(1-(4-((4-(2-(2,6-dioxopiperidin-3-yl)-1-oxoisoindolin-5-yl)piperidin-1-yl)methyl)piperidine-1-carbonyl)piperidin-4-yl)-2-(4-phenoxyphenyl)-4,5,6,7-tetrahydropyrazolo[1,5-a]pyrimidine-3-carboxamide] | < 1000 | 1000 to 10000 | > 90 | < 10
3 | NC(=O)c1c(-c2ccc(Oc3ccccc3)cc2)nn2c1NCC[C@H]2C1CCN(C(=O)N2CCN(CCN3CCN(c4ccc5c(c4)C(=O)N(C4CCC(=O)NC4=O)C5=O)CC3)CC2)CC1 (stereo partly drawn) [Compound 297, (7S)-7-(1-(4-(2-(4-(2-(2,6-dioxopiperidin-3-yl)-1,3-dioxoisoindolin-5-yl)piperazin-1-yl)ethyl)piperazine-1-carbonyl)piperidin-4-yl)-2-(4-phenoxyphenyl)-4,5,6,7-tetrahydropyrazolo[1,5-a]pyrimidine-3-carboxamide] | 1000 to 10000 | 1000 to 10000 | > 90 | 10 to 50
4 | NC(=O)c1c(-c2ccc(Oc3ccccc3)cc2)nn2c1NCC[C@H]2C1CCN(C(=O)N2CCN(CCN3CCN(c4ccc5c(c4)CN(C4CCC(=O)NC4=O)C5=O)CC3)CC2)CC1 (stereo partly drawn) [Compound 298, (7S)-7-(1-(4-(2-(4-(2-(2,6-dioxopiperidin-3-yl)-1-oxoisoindolin-5-yl)piperazin-1-yl)ethyl)piperazine-1-carbonyl)piperidin-4-yl)-2-(4-phenoxyphenyl)-4,5,6,7-tetrahydropyrazolo[1,5-a]pyrimidine-3-carboxamide] | 1000 to 10000 | 1000 to 10000 | > 90 | 10 to 50
5 | NC(=O)c1c(-c2ccc(Oc3ccccc3)cc2)nn2c1NCC[C@H]2C1CCN(C(=O)N2CCN(CCC3CCN(c4ccc5c(c4)C(=O)N(C4CCC(=O)NC4=O)C5=O)CC3)CC2)CC1 (stereo partly drawn) [Compound 299, (7S)-7-(1-(4-(2-(1-(2-(2,6-dioxopiperidin-3-yl)-1,3-dioxoisoindolin-5-yl)piperidin-4-yl)ethyl)piperazine-1-carbonyl)piperidin-4-yl)-2-(4-phenoxyphenyl)-4,5,6,7-tetrahydropyrazolo[1,5-a]pyrimidine-3-carboxamide] | 1000 to 10000 | 1000 to 10000 | > 75 | 10 to 50
6 | NC(=O)c1c(-c2ccc(Oc3ccccc3)cc2)nn2c1NCC[C@H]2C1CCN(C(=O)N2CCN(CCC3CCN(c4ccc5c(c4)CN(C4CCC(=O)NC4=O)C5=O)CC3)CC2)CC1 (stereo partly drawn) [Compound 300, (7S)-7-(1-(4-(2-(1-(2-(2,6-dioxopiperidin-3-yl)-1-oxoisoindolin-5-yl)piperidin-4-yl)ethyl)piperazine-1-carbonyl)piperidin-4-yl)-2-(4-phenoxyphenyl)-4,5,6,7-tetrahydropyrazolo[1,5-a]pyrimidine-3-carboxamide] | 1000 to 10000 | 1000 to 10000 | > 75 | 10 to 50
7 | NC(=O)c1c(-c2ccc(Oc3ccccc3)cc2)nn2c1NCC[C@H]2C1CCN(C(=O)N2CCC(CCN3CCC(c4ccc5c(c4)C(=O)N(C4CCC(=O)NC4=O)C5=O)CC3)CC2)CC1 (stereo partly drawn) [Compound 301, (7S)-7-(1-(4-(2-(4-(2-(2,6-dioxopiperidin-3-yl)-1,3-dioxoisoindolin-5-yl)piperidin-1-yl)ethyl)piperidine-1-carbonyl)piperidin-4-yl)-2-(4-phenoxyphenyl)-4,5,6,7-tetrahydropyrazolo[1,5-a]pyrimidine-3-carboxamide] | 1000 to 10000 | 1000 to 10000 | > 75 | 10 to 50
8 | NC(=O)c1c(-c2ccc(Oc3ccccc3)cc2)nn2c1NCC[C@H]2C1CCN(C(=O)N2CCC(CCN3CCC(c4ccc5c(c4)CN(C4CCC(=O)NC4=O)C5=O)CC3)CC2)CC1 (stereo partly drawn) [Compound 302, (7S)-7-(1-(4-(2-(4-(2-(2,6-dioxopiperidin-3-yl)-1-oxoisoindolin-5-yl)piperidin-1-yl)ethyl)piperidine-1-carbonyl)piperidin-4-yl)-2-(4-phenoxyphenyl)-4,5,6,7-tetrahydropyrazolo[1,5-a]pyrimidine-3-carboxamide] | 1000 to 10000 | 1000 to 10000 | > 75 | 10 to 50
9 | NC(=O)c1c(-c2ccc(Oc3ccccc3)cc2)nn2c1NCC[C@H]2C1CCN(C(=O)N2CCN(CCN3CCC(c4ccc5c(c4)C(=O)N(C4CCC(=O)NC4=O)C5=O)CC3)CC2)CC1 (stereo partly drawn) [Compound 303, (7S)-7-(1-(4-(2-(4-(2-(2,6-dioxopiperidin-3-yl)-1,3-dioxoisoindolin-5-yl)piperidin-1-yl)ethyl)piperazine-1-carbonyl)piperidin-4-yl)-2-(4-phenoxyphenyl)-4,5,6,7-tetrahydropyrazolo[1,5-a]pyrimidine-3-carboxamide] | 1000 to 10000 | 1000 to 10000 | > 75 | 10 to 50
10 | NC(=O)c1c(-c2ccc(Oc3ccccc3)cc2)nn2c1NCC[C@H]2C1CCN(C(=O)N2CCN(CCN3CCC(c4ccc5c(c4)CN(C4CCC(=O)NC4=O)C5=O)CC3)CC2)CC1 (stereo partly drawn) [Compound 304, (7S)-7-(1-(4-(2-(4-(2-(2,6-dioxopiperidin-3-yl)-1-oxoisoindolin-5-yl)piperidin-1-yl)ethyl)piperazine-1-carbonyl)piperidin-4-yl)-2-(4-phenoxyphenyl)-4,5,6,7-tetrahydropyrazolo[1,5-a]pyrimidine-3-carboxamide] | 1000 to 10000 | 1000 to 10000 | > 75 | 10 to 50
11 | NC(=O)c1c(-c2ccc(Oc3ccccc3)cc2)nn2c1NCCC2C1CCN(C2CCN(CC3CCN(c4ccc5c(c4)C(=O)N(C4CCC(=O)NC4=O)C5=O)CC3)CC2)CC1 (stereo not shown) [Compound 305, 7-(1′-((1-(2-(2,6-dioxopiperidin-3-yl)-1,3-dioxoisoindolin-5-yl)piperidin-4-yl)methyl)-[1,4′-bipiperidin]-4-yl)-2-(4-phenoxyphenyl)-4,5,6,7-tetrahydropyrazolo[1,5-a]pyrimidine-3-carboxamide] | 1000 to 10000 | 1000 to 10000 | > 90 | 10 to 50
12 | NC(=O)c1c(-c2ccc(Oc3ccccc3)cc2)nn2c1NCCC2C1CCN(C2CCN(CC3CCN(c4ccc5c(c4)CN(C4CCC(=O)NC4=O)C5=O)CC3)CC2)CC1 (stereo not shown) [Compound 306, 7-(1′-((1-(2-(2,6-dioxopiperidin-3-yl)-1-oxoisoindolin-5-yl)piperidin-4-yl)methyl)-[1,4′-bipiperidin]-4-yl)-2-(4-phenoxyphenyl)-4,5,6,7-tetrahydropyrazolo[1,5-a]pyrimidine-3-carboxamide] | 1000 to 10000 | 1000 to 10000 | > 90 | 10 to 50
13 | NC(=O)c1c(-c2ccc(Oc3ccccc3)cc2)nn2c1NCCC2C1CCN(C2CCN(CCN3CCN(c4ccc5c(c4)C(=O)N(C4CCC(=O)NC4=O)C5=O)CC3)CC2)CC1 (stereo not shown) [Compound 307, 7-(1′-(2-(4-(2-(2,6-dioxopiperidin-3-yl)-1,3-dioxoisoindolin-5-yl)piperazin-1-yl)ethyl)-[1,4′-bipiperidin]-4-yl)-2-(4-phenoxyphenyl)-4,5,6,7-tetrahydropyrazolo[1,5-a]pyrimidine-3-carboxamide] | 1000 to 10000 | > 10000 | > 75 | > 50
14 | NC(=O)c1c(-c2ccc(Oc3ccccc3)cc2)nn2c1NCCC2C1CCN(C2CCN(CCN3CCN(c4ccc5c(c4)CN(C4CCC(=O)NC4=O)C5=O)CC3)CC2)CC1 (stereo not shown) [Compound 308, 7-(1′-(2-(4-(2-(2,6-dioxopiperidin-3-yl)-1-oxoisoindolin-5-yl)piperazin-1-yl)ethyl)-[1,4′-bipiperidin]-4-yl)-2-(4-phenoxyphenyl)-4,5,6,7-tetrahydropyrazolo[1,5-a]pyrimidine-3-carboxamide] | 1000 to 10000 | > 10000 | > 75 | 10 to 50
15 | NC(=O)c1c(-c2ccc(Oc3ccccc3)cc2)nn2c1NCCC2C1CCN(C2CCN(CCC3CCN(c4ccc5c(c4)C(=O)N(C4CCC(=O)NC4=O)C5=O)CC3)CC2)CC1 (stereo not shown) [Compound 309, 7-(1′-(2-(1-(2-(2,6-dioxopiperidin-3-yl)-1,3-dioxoisoindolin-5-yl)piperidin-4-yl)ethyl)-[1,4′-bipiperidin]-4-yl)-2-(4-phenoxyphenyl)-4,5,6,7-tetrahydropyrazolo[1,5-a]pyrimidine-3-carboxamide] | > 10000 | > 10000 | > 75 | 10 to 50
16 | NC(=O)c1c(-c2ccc(Oc3ccccc3)cc2)nn2c1NCCC2C1CCN(C2CCN(CCC3CCN(c4ccc5c(c4)CN(C4CCC(=O)NC4=O)C5=O)CC3)CC2)CC1 (stereo not shown) [Compound 310, 7-(1′-(2-(1-(2-(2,6-dioxopiperidin-3-yl)-1-oxoisoindolin-5-yl)piperidin-4-yl)ethyl)-[1,4′-bipiperidin]-4-yl)-2-(4-phenoxyphenyl)-4,5,6,7-tetrahydropyrazolo[1,5-a]pyrimidine-3-carboxamide] | > 10000 | > 10000 | > 75 | 10 to 50
